From patent publication US12679801B2, “Amino lipid and preparation method and application thereof” (Shenzhen MagicRNA Biotechnology Co., Ltd., priority 2022, dated 2026) come the findings set out here.

The test system of the assay is BMDC primary cells. The assay is described as follows: Luc mRNA LNP transfection on BMDC primary cells (Embodiment 13, Table 3). The format is cell-based, C57BL/6 mice. The note with it: 16 h, ONE-Glo Luciferase. Here is the method:
Preparation method: the same as that described in Embodiment 7.
Animal preparation: 6-week-old female C57BL/6 mice with the body weight about 20 g were selected. The feeding environment was an SPF stage feeding room. Animal tests were strictly performed according to the guide of the national health institute and the animal ethics requirements.
Cell acquisition: C57BL/6 mice were killed through cervical dislocation, and were soaked for 5 min in 75% ethyl alcohol. Dissection was performed to obtain thigh and calf tibiae of the mice. Attached muscles were removed to expose sclerotin. Then, bone marrow in tibiae was blown out by using a 1 mL injector sucked with PBS. After the bone marrow was blown away, impurities were filtered away by a 50 μm filter screen. A red blood cell lysis buffer (3-4 mL) was added into an obtained filtrate. Then, after placement for 5 min, 800 g centrifugation was performed for 5 min to remove the supernatant. The obtained cells were placed into a 1640 culture medium (containing 10% fetal calf serum, 20 ng/mL GMCSF and 10 ng/ml IL4) to be resuspended, and were inoculated into a 6-well plate at an inoculation density of 100000 cells/ml culture medium. The materials were placed into a 37° C. cell incubator containing 5% CO2. Half liquid change was performed once every 2 days. Suspended cells and loose wall attached cells were collected on the seventh day, and were […], and the volume of a culture medium was 100 μL.
Cell transfection: lipid nanoparticles coated with luciferase mRNA were added into a 96-well all-white ELISA plate laid with primary cells. The adding volume of the mRNA lipid nanoparticles in each well was controlled to be 10 μL. Then, the materials were put into a 37° C. incubator containing 5% CO2 for 16 h.
Transfection efficiency detection: 20 μL of a substrate ONE-Glo™ Luciferase was added into each well of a 96-well all-white ELISA plate. After 1 min, detection was performed by a multifunctional or multimode microplate reader.
For `CCCCCCCCCC(CCCCCCC)C(=O)OCC(CCCCCC)OC(=O)C(C)CCN(C)C` (stereo not shown) [E3C79A10], the Luciferase luminescence intensity was 7.4E+ 04.

Turning to `CCCCCCCCCC(CCCCCCC)C(=O)OCC(CCCCCC)OC(=O)CCCCN(C)C` (stereo not shown) [E3C79A11], the Luciferase luminescence intensity came out at 9.0E+ 04.

For `CCCCCCCCCC(CCCCCCC)C(=O)OCC(CCCCCC)OC(=O)CCCCCN(C)C` (stereo not shown) [E3C79A12], the Luciferase luminescence intensity was 6.7E+ 04.

With `CCCCCCCCCCCCCC(C)C(=O)OCC(CCCCCCC)OC(=O)CCCCN(C)C` (stereo not shown) [E4C72A11], the Luciferase luminescence intensity came to 5.8E+ 04.

Compound `CCCCCCCCCCCCCCC(C)C(=O)OCC(CCCCCCC)OC(=O)CCCN(C)C` (stereo not shown) [E4C74A9] registered a Luciferase luminescence intensity of 6.9E+ 04.

As for `CCCCCCCCCCCCCCC(C)C(=O)OCC(CCCCCCC)OC(=O)C(C)CCN(C)C` (stereo not shown) [E4C74A10], the Luciferase luminescence intensity is 4.7E+ 04.

Turning to `CCCCCCCCCCCCCCC(C)C(=O)OCC(CCCCCCC)OC(=O)CCCCN(C)C` (stereo not shown) [E4C74A11], the Luciferase luminescence intensity is given as 6.0E+ 04.

Regarding `CCCCCCCCCC(CCCCCCC)C(=O)OCC(CCCCCCC)OC(=O)CCCN(C)C` (stereo not shown) [E4C79A9], the Luciferase luminescence intensity turned out to be 2.2E+ 04.

In turn, `CCCCCCCCCC(CCCCCCC)C(=O)OCC(CCCCCCC)OC(=O)C(C)CCN(C)C` (stereo not shown) [E4C79A10] displayed a Luciferase luminescence intensity of 1.3E+ 04.

With `CCCCCCCCCC(CCCCCCC)C(=O)OCC(CCCCCCC)OC(=O)CCCCN(C)C` (stereo not shown) [E4C79A11], the Luciferase luminescence intensity stood at 3.4E+ 04.

In turn, `CCCCCCCCCC(CCCCCCC)C(=O)OCC(CCCCCCC)OC(=O)CCCCCN(C)C` (stereo not shown) [E4C79A12] displayed a Luciferase luminescence intensity of 2.5E+ 04.

Compound `CCCCCCCCCCCCCCCCCC(=O)OCC(CCCCCCCC)OC(=O)CCCCCN(C)C` (stereo not shown) [E5C13A12] yielded a Luciferase luminescence intensity of 1.1E+ 04.

The compound `CCCCCCCCC(COC(=O)C(CCCCCC)CCCCCCCC)OC(=O)CCCCN(C)C` (stereo not shown) [E5C71A11] returned a Luciferase luminescence intensity of 4.6E+ 04.

For `CCCCCCCCCCCCCCC(C)C(=O)OCC(CCCCCCCC)OC(=O)C(C)CCN(C)C` (stereo not shown) [E5C74A10], the Luciferase luminescence intensity is listed as 2.9E+ 04.

`CCCCCCCCCCCCCCC(C)C(=O)OCC(CCCCCCCC)OC(=O)CCCCN(C)C` (stereo not shown) [E5C74A11] came in with a Luciferase luminescence intensity of 7.7E+ 03.

In the case of `CCCCCCCCCC(CCCCCCC)C(=O)OCC(CCCCCCCC)OC(=O)CCCCN(C)C` (stereo not shown) [E5C79A11], the Luciferase luminescence intensity is recorded as 3.6E+ 04.

For the compound `CCCCCCCC/C=C/CCCCCCCC(=O)OCC(CCCCCCCC)OC(=O)C1CCN(C)CC1` (stereo not shown) [E5C82A23, 1-(Octadec-9-Enoyloxy) Decan-2-Yl 1-Methylpiperidine-4-Carboxylate], the Luciferase luminescence intensity came out at 1.4E+ 04.

As for `CCCCCCCCCC(COC(=O)C(CCCCCC)CCCCCCCC)OC(=O)CCCCN(C)C` (stereo not shown) [E6C71A11], the Luciferase luminescence intensity is recorded as 3.4E+ 04.

`CCCCCCCCCCCCCC(C)C(=O)OCC(CCCCCCCCC)OC(=O)CCCCN(C)C` (stereo not shown) [E6C72A11] yielded a Luciferase luminescence intensity of 5.0E+ 04.

In the case of `CCCCCCCCCCCCCCC(C)C(=O)OCC(CCCCCCCCC)OC(=O)C(C)CCN(C)C` (stereo not shown) [E6C74A10], the Luciferase luminescence intensity worked out at 1.1E+ 04.

`CCCCCCCCCCCCCCC(C)C(=O)OCC(CCCCCCCCC)OC(=O)CCCCN(C)C` (stereo not shown) [E6C74A11] returned a Luciferase luminescence intensity of 4.5E+ 04.

For the compound `CCCCCCCCCC(COC(=O)C(CCCCCCC)CCCCCCCCC)OC(=O)C(C)CCN(C)C` (stereo not shown) [E6C79A10], the Luciferase luminescence intensity was 4.6E+ 04.

The compound `CCCCCCCCCC(COC(=O)C(CCCCCCC)CCCCCCCCC)OC(=O)CCCCN(C)C` (stereo not shown) [E6C79A11] yielded a Luciferase luminescence intensity of 5.4E+ 04.

For `CCCCCCCCCC(COC(=O)C(CCCCCCC)CCCCCCCCC)OC(=O)CCCCCN(C)C` (stereo not shown) [E6C79A12], the Luciferase luminescence intensity came to 2.5E+ 04.

Turning to `CCCCCCCCCCC(COC(=O)C(CCCCCC)CCCCCCCC)OC(=O)C(C)CCN(C)C` (stereo not shown) [E7C71A10], the Luciferase luminescence intensity turned out to be 8.3E+ 04.

In the case of `CCCCCCCCCCC(COC(=O)C(CCCCCC)CCCCCCCC)OC(=O)CCCCN(C)C` (stereo not shown) [E7C71A11], the Luciferase luminescence intensity is reported as 4.4E+ 04.

`CCCCCCCCCCCCCCC(C)C(=O)OCC(CCCCCCCCCC)OC(=O)CCCN(C)C` (stereo not shown) [E7C74A9] showed a Luciferase luminescence intensity of 4.8E+ 04.

As to `CCCCCCCCCCCCCCC(C)C(=O)OCC(CCCCCCCCCC)OC(=O)C(C)CCN(C)C` (stereo not shown) [E7C74A10], the Luciferase luminescence intensity was 3.7E+ 04.

In the case of `CCCCCCCCCCCCCCC(C)C(=O)OCC(CCCCCCCCCC)OC(=O)CCCCN(C)C` (stereo not shown) [E7C74A11], the Luciferase luminescence intensity is listed as 3.2E+ 04.

The compound `CCCCCCCCCCC(COC(=O)C(CCCCCCC)CCCCCCCCC)OC(=O)CCCN(C)C` (stereo not shown) [E7C79A9] showed a Luciferase luminescence intensity of 5.6E+ 04.

`CCCCCCCCCCC(COC(=O)C(CCCCCCC)CCCCCCCCC)OC(=O)C(C)CCN(C)C` (stereo not shown) [E7C79A10] displayed a Luciferase luminescence intensity of 3.6E+ 04.

Compound `CCCCCCCCCCC(COC(=O)C(CCCCCCC)CCCCCCCCC)OC(=O)CCCCN(C)C` (stereo not shown) [E7C79A11] came in with a Luciferase luminescence intensity of 4.2E+ 04.

For the compound `CCCCCCCCCCC(COC(=O)C(CCCCCCC)CCCCCCCCC)OC(=O)CCCCCN(C)C` (stereo not shown) [E7C79A12], the Luciferase luminescence intensity amounted to 3.5E+ 04.

The compound `CCCCCCCCCCCC(COC(=O)C(CCCCCC)CCCCCCCC)OC(=O)CCCN(C)C` (stereo not shown) [E8C71A9] yielded a Luciferase luminescence intensity of 8.8E+ 04.

Compound `CCCCCCCCCCCC(COC(=O)C(CCCCCC)CCCCCCCC)OC(=O)CCCCN(C)C` (stereo not shown) [E8C71A11] registered a Luciferase luminescence intensity of 5.4E+ 04.

In the case of `CCCCCCCCCCCC(COC(=O)C(CCCCCC)CCCCCCCC)OC(=O)C1CCN(C)CC1` (stereo not shown) [E8C71A23], the Luciferase luminescence intensity was found to be 1.5E+ 04.

As to `CCCCCCCCCCCCCC(C)C(=O)OCC(CCCCCCCCCCC)OC(=O)CCCN(C)C` (stereo not shown) [E8C72A9], the Luciferase luminescence intensity came out at 6.1E+ 04.

Consider `CCCCCCCCCCCCCC(C)C(=O)OCC(CCCCCCCCCCC)OC(=O)CCCCN(C)C` (stereo not shown) [E8C72A11], for which the Luciferase luminescence intensity was determined as 7.3E+ 04.

`CCCCCCCCCCCCCCC(C)C(=O)OCC(CCCCCCCCCCC)OC(=O)CCCN(C)C` (stereo not shown) [E8C74A9] returned a Luciferase luminescence intensity of 8.5E+ 04.

`CCCCCCCCCCCCCCC(C)C(=O)OCC(CCCCCCCCCCC)OC(=O)CCCCN(C)C` (stereo not shown) [E8C74A11] registered a Luciferase luminescence intensity of 4.0E+ 04.

`CCCCCCCCCCCCCCC(C)C(=O)OCC(CCCCCCCCCCC)OC(=O)C1CCN(C)CC1` (stereo not shown) [E8C74A23]: the Luciferase luminescence intensity is 1.3E+ 04.

In turn, `CCCCCCCCCCCC(COC(=O)C(CCCCCCC)CCCCCCCCC)OC(=O)CCCN(C)C` (stereo not shown) [E8C79A9] yielded a Luciferase luminescence intensity of 3.6E+ 04.

In the case of `CCCCCCCCCCCCC(COC(=O)C(CCCC)CCCCCC)OC(=O)C(C)CCN(C)C` (stereo not shown) [E9C56A10], the Luciferase luminescence intensity is listed as 8.8E+ 04.

In turn, `CCCCCCCCCCCCC(COC(=O)C(CCCCC)CCCCC)OC(=O)C(C)CCN(C)C` (stereo not shown) [E9C57A10] registered a Luciferase luminescence intensity of 3.2E+ 04.

Compound `CCCCCCCCCCCCC(COC(=O)C(C)(C)CCCCCCCC)OC(=O)CCCCN(C)C` (stereo not shown) [E9C58A11] had a Luciferase luminescence intensity of 3.5E+ 04.

On to `CCCCCCCCCCCCC(COC(=O)C(CC)CCCCCCCCC)OC(=O)C1CCN(C)CC1` (stereo not shown) [E9C60A23], for which the Luciferase luminescence intensity came out at 1.8E+ 04.

For the compound `CCCCCCCCCCCCC(COC(=O)C(CCC)CCCCCCCC)OC(=O)C(C)CCN(C)C` (stereo not shown) [E9C62A10], the Luciferase luminescence intensity is given as 4.3E+ 04.

The compound `CCCCCCCCCCCCC(COC(=O)CCCCCCCCCC(C)CC)OC(=O)C(C)CCN(C)C` (stereo not shown) [E9C63A10] came in with a Luciferase luminescence intensity of 5.6E+ 04.

For the compound `CCCCCCCCCCCCC(COC(=O)C(CCCCCC)CCCCCC)OC(=O)CCCN(C)C` (stereo not shown) [E9C64A9], the Luciferase luminescence intensity came to 8.9E+ 04.

The compound `CCCCCCCCCCCC(COC(=O)C(CCCCCC)CCCCCC)OC(=O)C(C)CCN(C)C` (stereo not shown) [E9C64A10] returned a Luciferase luminescence intensity of 6.1E+ 04.

As for `CCCCCCCCCCCCC(COC(=O)C(C)(C)CCCCCCCCCC)OC(=O)CCCN(C)C` (stereo not shown) [E9C66A9], the Luciferase luminescence intensity worked out at 2.3E+ 04.

Compound `CCCCCCCCCCCCC(COC(=O)CCCCCCCCCCCC(C)C)OC(=O)C(C)CCN(C)C` (stereo not shown) [E9C67A10] gave a Luciferase luminescence intensity of 7.8E+ 04.

For `CCCCCCCCCCCCCCC(C)C(=O)OCC(CCCCCCCCCCCCC)OC(=O)CCCN(C)C` (stereo not shown) [E10C74A9], the Luciferase luminescence intensity amounted to 1.3E+ 04.

Turning to `CCCCCCCCCCCCCCC(C)C(=O)OCC(CCCCCCCCCCCCC)OC(=O)C1CCN(C)CC1` (stereo not shown) [E10C74A23], the Luciferase luminescence intensity is on record as 1.0E+ 04.

Consider `CCCCCCCCCCCCCC(COC(=O)C(CCCCCCC)CCCCCCCCC)OC(=O)CCCN(C)C` (stereo not shown) [E10C79A9], for which the Luciferase luminescence intensity is 1.3E+ 04.

Turning to `CCCCCCCCCCCCCCC(COC(=O)CCCCCCCCCCC)OC(=O)CCCN(C)C` (stereo not shown) [E11C7A9, 2-((4-(Dimethylamino)Butanoyl)Oxy)Hexadecyl Dodecanoate], the Luciferase luminescence intensity stood at 1.5E+ 04.

As for `CCCCCCCCCCCCCCC(COC(=O)C(CCCCC)CCCCC)OC(=O)CCCCN(C)C` (stereo not shown) [E11C57A11], the Luciferase luminescence intensity stood at 6.4E+ 04.

As to `CCCCCCCCCCCCCCC(COC(=O)C(C)(C)CCCCCCCC)OC(=O)CCCCN(C)C` (stereo not shown) [E11C58A11], the Luciferase luminescence intensity came to 2.3E+ 04.
